Assay results from US4939133A, “N-substituted-2-hydroxy-α-oxo-benzeneacetamides and pharmaceutical compositions having activity as modulators of the arachidonic acid cascade” (Warner-Lambert Company, priority 1985, dated 1990).
Where “and” joins values, the source holds several entries; their conditions need not be identical. Identical values can stand only once. Like-named read-outs stand apart in the source and are kept apart here.

Columns and labels:
[1] = target: Human Leukocyte Lipoxygenase; assay: Human Leukocyte Lipoxygenase Assay (LDA-H / LDAH); assay type: biochemical; settings: for IC50: 50% reduction of reaction rate vs control, E -number means X 10^-no.
Procedure: Human Leukocyte Lipoxygenase Assay (LDA-H)
Whole blood is collected from normal volunteers and spun in a refrigerated centrifuge for four minutes at 1°-6° C. at 3800 g. The buffy coat is manually separated and washed twice with chilled 0.83% NH4 Cl and centrifuged at 1000 RPM for ten minutes at 4° C. The white cell is suspended in culture media-EMEM supplemented with 6% Agamma human serum, tricine buffer, and neomycin and recentrifuged at 1000 g to yield a pellet containing the leukocytes used for the preparation of the acetone pentane powder.
The acetone-pentane powder is prepared utilizing a modification of the procedure reported for human platelet lipoxygenase. See Siegel, et al, Arachidonate Metabolism via Lipoxygenase and 12-L-hydroperoxy-5-Eicostetraenoic acid Peroxidase Sensitive to Antiinflammatory Drugs, Proc. Natl. Acad. Sci., USA 77:308, 1980 and D. P. Wallach and V. R. Brown, a novel Preparation of Human Platlet Lipoxygenase, Biochem. Biophys. Acta. 663:361, 1981. Buffy coat prepared above is resuspended in 5-7 volumes of cold 0.1M Tris buffer, pH 7.4 containing 0.154M NaCl. The suspension is centrifuged at 13,300 g for ten minutes at 4° C. The resultant pellet was retained, resuspended in five volumes of cold acetone, recentrifuged at 13,300 g and resuspended in five volumes of cold pentane. The pentane suspension is centrifuged for ten minutes at 13,300 g to give a pellet which is dried in the cold under vacuum with periodic pulverization. The dry powder is stable for several weeks when stored at -88° C.
Enzyme stock solution is prepared in the following manner. About 15 mg of the acetone-pentane powder sis suspended in 4 ml of cold tris buffer (0.1M, pH 7.4), allowed to stand for five minutes, and homogenized thorougly. The homogenate is sonicated three times for 15 seconds each time, diluted to 7 ml with cold tris buffer (0.1M, pH 7.4), and centrifuged at 4° C. for 60 minutes at 13,300 g. The supernatent is retained and diluted to a total of 10 ml with cold tris buffer (0.1M, pH 7.4) to give the stck enzyme solution. Additional dilutions of 2-50 fold are done as necessary to locate optimal enzyme reaction rate in the assay described below.
Substrate solution is prepared at 100 μM or 1.0 μM concentrations of arachidonic acid or linoleic acid in 0.1M tris buffer, pH 9.0 containing 20% ethanol.
The enzyme reaction is followed spectrophotometrically by the appearance of a conjugated diene product at 234 nm. The reaction is monitored at 24° C. using a Gilford Model 2600 spectrophotometer. […] The effects of inhibitors on the reaction are compared with control reactions run under indentical conditions. Routinely, each compounds of the present invention is incubated with the enzyme for five minutes prior to addition of substrate to initiate the reaction. Inhibition expressed as IC50 as molar concentration of the compound required to reduce reaction rate to 50% control.

[2] = target: T1, human leukocyte 5-lipoxygenase (Homo sapiens, UniProt P09917); assay: 5-Lipoxygenase inhibition in human leukocytes, 5-HETE formation (5LOA1, 5LOA in Table 6); assay type: cell-based; settings: 50% inhibition of 5-HETE formation, E -number means X 10^-no.
T1 construct: endogenous in cells; host or cells: leukocytes from fresh blood of normal adult men
T1 sequence (P09917 1-674): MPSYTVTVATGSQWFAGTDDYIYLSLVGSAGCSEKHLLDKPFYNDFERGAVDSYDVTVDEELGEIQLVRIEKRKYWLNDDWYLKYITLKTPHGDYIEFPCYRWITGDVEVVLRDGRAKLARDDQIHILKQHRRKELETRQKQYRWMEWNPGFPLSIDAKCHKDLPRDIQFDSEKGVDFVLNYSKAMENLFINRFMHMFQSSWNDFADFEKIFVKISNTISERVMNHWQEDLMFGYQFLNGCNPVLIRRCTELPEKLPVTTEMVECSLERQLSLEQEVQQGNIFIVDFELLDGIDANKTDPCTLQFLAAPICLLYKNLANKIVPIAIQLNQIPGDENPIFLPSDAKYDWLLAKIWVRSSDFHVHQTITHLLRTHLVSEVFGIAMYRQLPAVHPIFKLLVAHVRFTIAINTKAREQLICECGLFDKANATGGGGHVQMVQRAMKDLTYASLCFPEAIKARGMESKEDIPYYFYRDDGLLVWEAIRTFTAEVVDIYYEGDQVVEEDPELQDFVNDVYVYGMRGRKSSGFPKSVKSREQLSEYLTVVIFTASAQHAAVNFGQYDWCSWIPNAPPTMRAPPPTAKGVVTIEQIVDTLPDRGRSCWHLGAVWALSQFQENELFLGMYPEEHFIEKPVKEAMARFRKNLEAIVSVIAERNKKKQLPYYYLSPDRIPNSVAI
Text: To Evaluate the Effect of Each Compounds as a 5-Lipoxygenase Inhibitor in Comparison to Standard Reference Agents in Human Leukocytes (5LOAl)
The purpose of this assay is to evaluate the activity of each compound as an inhibitor of human leukocyte 5-lipoxygenase.
Arachidonic acid and calcium ionophore A23187 are obtained from Sigma (St. Louis, MO). Silica gel plates, GF are obtained from Analtech (Newark, DE). Arachidonic acid, (1-^14 C) and 5-HETE (^3 H), 5-(S)-hydroxy-6-trans, 8,11,14-cis eicosatetraenoic acid, are obtained from New England Nuclear (Boston, MA). Six percent Dextran-70 in 0.9% NaCl is obtained from Cuffer Labs (Berkeley, CA).
Preparation of Leukocytes
Fresh blood from normal adult men who had not received any drugs for at least the previous five days is obtained by the Community Research Clinic (WL/PD) using venipuncture and collected into heparinized vacuotainer tubes. To every 100 ml of pooled blood is added 25 ml of dextran solution (6% dextran -70 in 0.9% sodium chloride containing 3% dextrose) and this is mixed gently in a plastic cylinder. The mixture is left to stand at room temperature for at least 90 minutes. The upper layer which is rich in leukocytes and platelets is then carefully decanted into 50 ml plastic tubes and centrifuged at about 100×g for eight minutes in and IEC centrifuge and rotor number 269 (about 600 rpm). The supernatant fluid is discarded and the pellet is resuspended in 10 ml of 0.87% ammonium chloride for exactly two minutes. This procedure is to lyse completely contaminating red blood cells. Leukocytes are then separated by centrifugation for ten minutes. The pellet is washed three times by suspension in 20 ml PBS (sodium chloride, 7.1 g; Na2 HPO4, 1.15 g; KH2 PO4,0.2 g, and KCl, 0.2 g/L) and centrifuged as before. The final pellet is suspended in PBS containing 0.87 mM CaCl2. Viability of the cells is then checked using trypan blue exclusion method and is found to be over 90%.
5-Lipoxygenase Enzyme Assay
Leukocyte cells in suspension (0.98 ml) are incubated with or without test compounds for five minutes at 37° C. in a shaking water bath. At this time a […] mixture is perpared per 1 ml of cell suspension: 100 mM arachidonic acid, 1 μl, 0.05 μCi ^14 C-arachidonic acid in 5 μl; 1 mM calcium ionophore A23187, 10 μl (1). This mixture is added and the incubation continued for five minutes. The reaction is stopped by adding four volumes of absolute ethanol and the mixture is kept in ice for 30 minutes. The floculated precipitate is separated by centrifugation at about 37,000×g for 20 minutes (Beckman Instruments rotor number 40). The alcohol extract is taken to dryness under a stream of nitrogen and the residue is dissolved in 100-200 μl absolute ethanol. At the time any turbidity is removed by centrifugation. An aliquot (25-50 μl) is applied onto 20×20 cm silica gel TLC plate and developed using the following solvent system: diethyl ether, petroleum ether (2040°C.),acetic acid (50:50: 1 v/v). Zones of 1 cm apart are scraped from the TLC plate and transferred to mini-vials. Methanol (0.5 ml) is added to dissolve the radioactivity adsorbed to the silica gel and scintillation fluid (H. P., Beckman), 5 ml is then added and vials are counted in a liquid scintillation counter. A sample of ^3 H-5-HETE is applied and used for the identification of the formed 5-HETE. Total radioactivity in the test as well as the control samples are normalized and the amount of 5-HETE present is calculated accordingly.
IC50 values are defined as the concentrations of test agents which caused a 50% inhibition of the formation of 5-HETE as compared to control and are determined by inspection of the concentration-response curves.

Compound | IC50 [1] | IC50 ([2]; read-out: IC50 (5LOA)) | % Inhibition (LDAH) ([1]; 2.50 E -5 M) | also measured
CCCCCCCCCCc1ccc(NC(=O)c2ccc(Cl)cc2O)cc1 [Example 7] | 2.8 µM |  |  | 
COc1ccc(C(=O)Nc2ccc(CCc3ccc(O)c(O)c3)cc2)c(O)c1 [Example 8, N-[4-[2-(3,4-Dihydroxyphenyl)ethyl]phenyl]-2-hydroxy-4-methoxybenzamide] |  | 7.1 µM |  | 
CCCCCCCCCCc1ccc(NC(=O)c2cc(Br)ccc2O)cc1 [Example 12] |  |  | 0.0% | 
CCCCCCCCCCc1ccc(NC(=O)c2ccccc2O)cc1 [Example 13] |  |  | 0.0% | 
CCCCCCCCCCc1ccc(NC(=O)c2cc([N+](=O)[O-])ccc2O)cc1 [Example 21, N-(4-n-decylphenyl)-2-hydroxy-5-nitro-benzamide] |  |  |  | IC50 ([2]; IC50 (5LOA)): 20.8 µM
CCCCCCCCCCc1ccc(NC(=O)c2cccc(C)c2O)cc1 [Example 22] | 0.68 µM |  |  | 
COc1ccc(CCc2ccc(NC(=O)c3cccc(Cl)c3O)cc2)cc1OC [Example 23] | 4.1 µM |  |  | 
CCCCCCCCCCc1ccc(NC(=O)c2c(O)cccc2O)cc1 [Example 25] |  |  |  | % Inhibition (LDAH) ([1]; 8.00 E -5 M): 0.0%
COc1cc(CCc2ccc(NC(=O)c3ccc(C)cc3O)cc2)ccc1O [Example 26] | 24 µM |  |  | 

More lines, main results first:

IC50 [1] | IC50 ([2]; read-out: IC50 (5LOA)) | % Inhibition (LDAH) ([1]; 2.50 E -5 M) | Compound | also measured
 | 39.2 µM |  | O=C(Nc1ccc(CCc2ccc(Cl)c(Cl)c2)cc1)c1cccc(Cl)c1O [Example 34] | 
 |  | 0.0% | O=C(Nc1ccc(CCc2ccc(Cl)c(Cl)c2)cc1)c1ccc(Cl)cc1O [Example 36] | 
 |  | 0.0% | COc1ccc(CCc2ccc(NC(=O)c3cc4ccccc4cc3O)cc2)cc1OC [Example 38] | 
 | 5.3 µM |  | Cc1ccc(C(=O)N(C)c2ccc(CCc3ccc(O)c(O)c3)cc2)c(O)c1 [Example 43] | 
 |  | 0.0% | O=C(Nc1ccc(CCc2ccc(O)c(O)c2)cc1)c1ccccc1O [Example 47, Benzamide, N-[4-[2-(3,4-dihydroxyphenyl)ethyl]phenyl]-2-hydroxy] | 
 | 4.2 µM and 3.5 µM | 0.0% | COc1ccc(CCc2ccc(NC(=O)c3ccccc3O)cc2)cc1OC [Example 48, N-[4-[2-(3,4-dimethoxyphenyl)ethyl]phenyl]-2-hydroxybenzamide] | 
 |  | 0.0% | CCCCCCCCCCc1ccc(NC(=O)c2cc3ccccc3cc2O)cc1 [Example 49, 2-Naphthalenecarboxamide, N-(4-decylphenyl)-3-hydroxy] | 
 | 11.1 µM |  | COc1ccc(CCc2ccc(N(C)C(=O)C(=O)c3ccccc3O)cc2)cc1OC [Example 51, N-Methyl-N-[4-(2-(3,4-dimethoxyphenyl)ethyl)phenyl]-2-hydroxy-α-oxo-benzeneacetamide] | 
0.184 µM | 5 µM |  | COc1ccc(CCc2ccc(NC(=O)C(=O)c3ccccc3O)cc2)cc1OC [Example 52, N-[4-(2-(3,4-dimethoxyphenyl)ethyl)phenyl]-2-hydroxy-α-oxo-Benzeneacetamide] | 
17 µM | 3.38 µM |  | O=C(Nc1ccc(CCc2ccc(O)c(O)c2)cc1)C(=O)c1ccccc1O [Example 53, N-[4-[2-(3,4-dihydroxyphenyl)ethyl]-phenyl]-2-hydroxy-α-oxo-benzeneacetamide] | 
0.28 µM |  |  | COc1ccc(CCc2ccc(NC(=O)C(=O)c3cccc(C(C)(C)C)c3O)cc2)cc1OC [Example 54, N-[4-[2-(3,4-dimethoxyphenyl)ethyl]phenyl]-3-(1,1-dimethylethyl)-2-hydroxy-α-oxo-benzeneacetamide] | 
3.9 µM | 7.1 µM and 8.17 µM |  | CC(C)(C)c1cccc(C(=O)C(=O)Nc2ccc(CCc3ccc(O)c(O)c3)cc2)c1O [Example 55, N-[4-[2-(3,4-dihydroxyphenyl)ethyl]phenyl]-3-(1,1-dimethylethyl)-2-hydroxy-α-oxobenzenacetamide] | 
120 µM |  |  | COc1ccc(CCc2ccc(NC(=O)C(=O)c3cccc(Cl)c3O)cc2)cc1OC [Example 60, 3-chloro-N-[4-[2-(3,4-dimethoxyphenyl)ethy]-phenyl]-2-hydroxy-α-oxo-benzenacetamide] | 
